The source made the active and inactive calls.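 How the source made its calls: active means compounds giving half or more protection of infected cells from virus-caused growth loss, again on retest; inactive means the rest.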 Where a SMILES comes first, the peptide text is derived from it. The star is where a group is joined. Cbz = O=C(OCc1ccccc1)*; Boc = CC(C)(C)OC(=O)*; OSu = O=C1CCC(=O)N1O*; Bn = c1ccc(C*)cc1
System: CEM cells HIV-1 protection, formazan growth assay
Assay: NCI AIDS Antiviral Assay
Details: for IC50: measured here: growth of uninfected CEM cells
Outline: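 Screen of anti-HIV-1 activity in human CEM cells using a formazan-based growth measurement at five drug concentrations. Hits with 50% or greater protection were repeated, and confirmation required reproducible complete protection.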

In the case of CC(C)(C)OC(=O)NC(Cc1ccc(OCc2ccccc2)cc1)C(=O)NC(CCCCNC(=O)OCc1ccccc1)C(=O)NC(CCCCNC(=O)OCc1ccccc1)C(=O)ON1C(=O)CCC1=O (stereo not given) (Boc-Tyr(Bn)-Lys(Cbz)-Lys(Cbz)-OSu; configuration not given here), the EC50 is reported as > 100 µM and the IC50 is reported as 46.8 µM.

For CC1(C)CC(=O)C(/C=N/c2nc(-c3ccccc3)cs2)=C(O)C1, the EC50 was > 200 µM and the IC50 was > 200 µM.

CC(=O)N1C(=O)C2(Nc3cccnc3N2)c2ccccc21 (stereo not given) was tested, and the EC50 was > 100 µM and the IC50 was > 100 µM.

For CC(Nc1cc(=O)n(C)c(=O)[nH]1)c1ccccc1 (stereo not given), the EC50 was 55 µM and the IC50 was > 200 µM.

CNc1ccccc1S(=O)(=O)c1ccccc1Br was tested, and the EC50 was > 200 µM and the IC50 was 18.2 µM.

With NC1CC(=O)c2sc(I)cc21 (stereo not given) the EC50 was > 200 µM and the IC50 was 102 µM.

With CCOP(=O)(OCC)/C(C#N)=C/c1ccc(C#N)cc1 the EC50 was > 123 µM and the IC50 was > 123 µM.

With Cc1c2c(cc3c(=O)ccn(CCN(C)C)c13)c(=O)ccn2CCN(C)C the EC50 was > 135 µM and the IC50 was 1 µM.

In the case of O=C(/C=C/c1ccccc1Cl)c1ccccc1Cl, the EC50 is reported as > 7.24 µM and the IC50 is reported as > 7.24 µM.

For CCOC(=O)/C=C/CCC(C)(C)COC(C)=O, the outcome was “inactive”.

In the case of Cn1c2ccccc2c2nnc(NCCCO)nc21, the EC50 is reported as > 200 µM and the IC50 is reported as 148 µM.

For NC(CCSSCCC(N)C(=O)NCC(=O)O)C(=O)NCC(=O)O (stereo not given), the EC50 was > 64.6 µM and the IC50 was > 64.6 µM.

S=C1SCN(C(c2ccccc2)c2ccccc2)CN1C(c1ccccc1)c1ccccc1 was tested, and the EC50 was > 200 µM and the IC50 was 4.47 µM.

CC1(C)C2CCC3(OCCO3)C1C(O)C2 (stereo not given) was tested, and the EC50 was > 427 µM and the IC50 was > 427 µM.

In the case of CCn1c(O)c(C=Nc2ccccc2)s/c1=N/Nc1nc(C)cs1, the EC50 is reported as > 200 µM and the IC50 is reported as 174 µM.

For CN1c2ccccc2N=Cc2c1oc1ccc3ccccc3c1c2=O, the EC50 was 46.8 µM and the IC50 was 50.1 µM.

In the case of CC(=O)c1c(-c2ccco2)c(C#N)c(=S)n(C2OC(CO)C(O)C(O)C2O)c1-c1ccccc1 (stereo not given), the EC50 is reported as > 200 µM and the IC50 is reported as 75.9 µM.

CC(C)=CC(C(O)c1ccccc1)S(=O)(=O)c1nccn1C (stereo not given) was tested, and the EC50 was > 407 µM and the IC50 was > 407 µM.

O=C1CCN2CCC(=O)c3c2c(cc2ccccc32)N1 was tested, and the EC50 was > 26.9 µM and the IC50 was > 26.9 µM.

In the case of COc1ccc(CN2COc3c(cc(Cl)c4cccnc34)C2)cc1, the EC50 is reported as > 200 µM and the IC50 is reported as 1.55 µM.

With O=C(O)c1nc2ccc(C(F)(F)F)cc2nc1NCc1ccc(F)cc1 the EC50 was > 200 µM and the IC50 was 15.8 µM.

With COc1ccc(/C=C2/C(=O)N=C(NC(C)=O)N2C)cc1OC the EC50 was > 200 µM and the IC50 was > 200 µM.

In the case of C#CCN(CCC)C(=O)COc1cc2c(O)c3c(O)c(C)c4c(c13)C(=O)C(C)(O/C=C/C(OC)C(C)C(OC(C)=O)C(C)C(O)C(C)C(O)C(C)/C=C/C=C(\C)C(=O)N2)O4 (stereo not given), the EC50 is reported as > 200 µM and the IC50 is reported as 39.8 µM.

With CN1C(=O)C(C)(C)NS1(=O)=O the outcome was “inactive”.

In the case of CCOC(=O)NC1C2CC(=O)C(O2)C1OCc1ccccc1 (stereo not given), the EC50 is reported as > 309 µM and the IC50 is reported as 295 µM.

COc1cc2c(cc1OC)c1c(OC)c(OC)cc3c1c1c2sc(=S)n1CC3 was tested, and the outcome was “inactive”.

With CCCCCCCCCCCCCC(=O)NCO the outcome was “inactive”.

For C(=N\OCc1ccccc1)/c1ncccc1C1OCCO1, the EC50 was > 331 µM and the IC50 was 309 µM.

In the case of COc1ccc(/C=C2\Cc3ccccc3C2=O)cc1OC, the EC50 is reported as > 35.5 µM and the IC50 is reported as > 35.5 µM.

For CC(/C=C/C(O)=C1/C(=O)CNC1=O)=C\[C@@H](C)[C@H]1O[C@@]2(C)O[C@H](C(=O)[C@@H]3O[C@@]32C)[C@@H]1C, the EC50 was > 200 µM and the IC50 was 91.2 µM.

With CCOc1ccc(Nc2nc(C)c(C(=O)/C=C/c3ccc(Cl)cc3Cl)s2)cc1 the EC50 was > 22.9 µM and the IC50 was 20 µM.

CN(C)NC(=O)NC12CC3CC(CC(C3)C1)C2 was tested, and the outcome was “inactive”.

With Oc1c(C(O)N2CCOCC2)cc(C(O)N2CCOCC2)c(O)c1O (stereo not given) (tested in a mixture with another compound) the EC50 was > 200 µM and the IC50 was 1.91 µM.

In the case of N#CC12CCCC(=O)N1c1ccccc1S2 (stereo not given), the EC50 is reported as > 195 µM and the IC50 is reported as 105 µM.

COc1ccc(C2Oc3cc(OC)c(O)c(C)c3[C@H]2C)cc1 (stereo not given in full) was tested, and the EC50 was > 45.7 µM and the IC50 was 30.9 µM.
